Measured values: patent US9758492B2, “IDO inhibitors” (Bristol-Myers Squibb Company, priority 2013, dated 2017)

How the values were obtained:
IDO [1] = target: T1, IDO (Homo sapiens, UniProt P14902); experiment: LLE_IDO_ABS_DR (IDO assay)
IDO [2] = target: T1, IDO; experiment: Kynurenine assay in Hela cells stimulated with IFN-γ to express IDO; type: cell-based; parameters: endogenous in cells; host or cells: HeLa (ATCC CCL-2), stimulated with human recombinant IFN-gamma; details: 20 h, read-out: Hela Kyurenine (IC50)
Description: IFNg (R&D, 28-IF-100)—resuspend at 10 ug/mL in PBS with 0.1% BSA 30% TCA
Ehrlich reagent (2% w/v p-dimethylaminobenzaldehyde in glacial acetic acid)
Cell Titer 96 Aqueous Non-Radioactive Cell Proliferation Assay, MTS (Promega, Cat # G5430)
Cell Lines and Culture Conditions
Hela cancer cell lines were acquired from the American Type Culture Collection. Cells were maintained in phenol red free-RPMI1640 medium containing high glucose and L-glutamine (Invitrogen) supplemented with 10% fetal bovine serum (FBS; Invitrogen). Cell cultures were incubated at 37° C., 5% CO2, and 100% humidity.
Cell Treatment and Kynurenine Assay
Hela cells were seeded on 96-well plates (40,000 cells per well) and allowed to adhere for 5-6 hours. Cells were then treated with vehicle (DMSO) or with IDO inhibitor at a top dose of 30 μM (3-fold dilution all the way down to 1.5 nM). A final concentration of 100 ng/mL of human recombinant IFN-γ (R&D, 28-IF-100) was immediately added to the cells to stimulate IDO expression. Treated cells were then incubated for 20 hours at 37° C. At the end of the 20 h incubation, reactions were terminated by the addition of 30% TCA to each well. Plates were incubated for 30 minutes at 50° C. to hydrolyze N-formylkynurenine to kynurenine. Cells were centrifuged 10 minutes at 2400 rpm. 100 ul of supernatants were transferred to new 96 flat well plates and mixed with 100 ul Ehrlich reagent. The resulting solution was incubated 10 minutes at RT. Absorbance at 490 nm was read using Spectra Max 384 (Molecular Devices).

T1 sequence (P14902 whole entry): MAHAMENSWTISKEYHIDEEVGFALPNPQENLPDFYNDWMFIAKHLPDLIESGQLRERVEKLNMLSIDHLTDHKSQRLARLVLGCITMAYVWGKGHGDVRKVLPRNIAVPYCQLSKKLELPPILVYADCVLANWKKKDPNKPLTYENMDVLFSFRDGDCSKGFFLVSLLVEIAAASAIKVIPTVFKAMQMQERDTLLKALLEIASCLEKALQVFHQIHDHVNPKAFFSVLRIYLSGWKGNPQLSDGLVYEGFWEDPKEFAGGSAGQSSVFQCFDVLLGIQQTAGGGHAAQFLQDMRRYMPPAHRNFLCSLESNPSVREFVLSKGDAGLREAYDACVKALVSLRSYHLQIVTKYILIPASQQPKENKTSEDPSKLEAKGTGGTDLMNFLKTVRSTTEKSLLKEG

Row | Structure (SMILES) | IC50 (IDO [1]) | IC50 (IDO [2])
1 | Cc1ccc(NC(=O)Nc2cc(-c3ccccc3-c3nnn[nH]3)ccc2N(C)C2CCCC2)cc1 [Example 3, 1-(4-(Cyclopentyl(methyl)amino)-2′-(1H-tetrazol-5-yl)biphenyl-3-yl)-3-p-tolylurea] | 60 nM | 10 nM
2 | CN(c1ncc(-c2ccccc2-c2nnn[nH]2)cc1NC(=O)Nc1ccccc1F)C1CCCCC1 [Example 37, 1-(5-(2-(1H-Tetrazol-5-yl)phenyl)-2-(cyclohexyl(methyl)amino)pyridin-3-yl)-3-(2-fluorophenyl)urea] | 40 nM | 10 nM
3 | Cc1ccc(NC(=O)Nc2cc(-c3ccccc3-c3nnn[nH]3)ccc2NC2CCCCC2)cc1 [Example 46, 1-(4-(cyclohexylamino)-2′-(1H-tetrazol-5-yl)biphenyl-3-yl)-3-p-tolylurea] | 130 nM | 90 nM
4 | Cc1ccc(NC(=O)Nc2cc(-c3ccccc3C(=O)O)ccc2NC2CCCCC2)cc1 [Example 48, 4′-(cyclohexyl-amino)-3′-(3-p-tolylureido)biphenyl-2-carboxylic acid] | 500 nM | 850 nM
5 | Cc1ccc(NC(=O)Nc2cc(-c3ccccc3C(=O)O)ccc2N2CCC[C@@H]3CCCC[C@@H]32)cc1 [Example 49, 4′-((4aS,8aS)-octahydroquinolin-1(2H)-yl)-3′-(3-p-tolylureido)biphenyl-2-carboxylic acid] | 160 nM | 180 nM
6 | CCN(c1ccc(-c2ccccc2-c2nnn[nH]2)cc1NC(=O)Nc1ccccc1F)C1CCCCC1 [Example 53, 1-(4-(cyclohexyl (ethyl)amino)-2′-(1H-tetrazol-5-yl)biphenyl-3-yl)-3-(2-fluorophenyl) urea] | 3.45 nM | 0.772 nM
7 | COC(CN(C)c1ccc(-c2ccccc2C(=O)O)cc1NC(=O)Nc1ccc(C)cc1)OC [Example 54, 4′-((2,2-dimethoxyethyl) (methyl)amino)-3′-(3-p-tolylureido) biphenyl-2-carboxylic acid] | 300 nM | 80 nM
8 | COCCN(CCOC)c1ccc(-c2ccccc2C(=O)O)cc1NC(=O)Nc1ccc(C)cc1 [Example 56, 4′-(bis(2-methoxyethyl)amino)-3′-(3-p-tolylureido)biphenyl-2-carboxylic acid] | 3590 nM | 3120 nM
9 | COCCN(CCOC)c1ccc(-c2ccccc2-c2nnn[nH]2)cc1NC(=O)Nc1ccc(C)cc1 [Example 57, 1-(4-(bis(2-methoxyethyl)amino)-2′-(1H-tetrazol-5-yl)biphenyl-3-yl)-3-p-tolylurea] | 270 nM | 220 nM
10 | Cc1ccc(NC(=O)Nc2cc(-c3ccccc3-c3nnn[nH]3)ccc2N(CC(F)F)CC2CC2)cc1 [Example 60, 1-(4-((cyclopropylmethyl) (2,2-difluoroethyl)amino)-2′-(1H-tetrazol-5-yl)biphenyl-3-yl)-3-p-tolylurea] | 140 nM | 140 nM
11 | Cc1ccc(NC(=O)Nc2cc(-c3ccccc3C(=O)O)ccc2N(CC(F)F)CC2CC2)cc1 [Example 61] | 510 nM | 700 nM
12 | CN(c1ccc(-c2ccccc2-c2nnn[nH]2)cc1NC(=O)Nc1ccccc1C(F)(F)F)C1CCCCC1 [Example 212, 1-(4-(cyclohexyl(methyl)amino)-2′-(1H-tetrazol-5-yl)biphenyl-3-yl)-3-(2-(trifluoromethyl)phenyl)urea] | 1270 nM | 200 nM
13 | CN(c1ccc(-c2ccccc2C(=O)O)cc1NC(=O)Nc1ccccc1Cl)C1CCCCC1 [Example 215, 3′-(3-(2-chlorophenyl)ureido)-4′-(cyclohexyl(methyl)amino) biphenyl-2-carboxylic acid] | 1280 nM | 120 nM
14 | CCN(c1ccc(-c2ccccc2-c2nnn[nH]2)cc1NC(=O)Nc1ccc(C)cc1)C1CCCCC1 [Example 216, 1-(4-(cyclohexyl(ethyl)amino)-2′-(1H-tetrazol-5-yl)biphenyl-3-yl)-3-p-tolylurea] | 0.835 nM | 0.831 nM

Continued by falling IC50 (IDO [2]), values first:

Row | IC50 (IDO [1]) | IC50 (IDO [2]) | Structure (SMILES)
15 | 4120 nM | 2280 nM | COc1ccc(-c2ccc(N(CC(F)F)CC3CC3)c(NC(=O)Nc3ccc(C)cc3)c2)cc1C(=O)O [Example 62, 4′-((cyclopropylmethyl) (2,2-difluoroethyl)amino)-4-methoxy-3′-(3-p-tolylureido)biphenyl-3-carboxylic acid]
16 |  | 2130 nM | Cc1ccc(NC(=O)Nc2cc(-c3ccccc3C(=O)O)ccc2N(C)C2CCOCC2)cc1 [Example 51, 4′-(methyl(tetra-hydro-2H-pyran-4-yl)amino)-3′-(3-p-tolylureido)biphenyl-2-carboxylic acid]
17 | 1470 nM | 440 nM | COc1ccc(-c2cc(NC(=O)Nc3ccc(C)cc3)c(N(C)C3CCCCC3)cc2F)cc1C(=O)O [Example 220, 4′-(cyclohexyl(methyl)ami-no)-2′-fluoro-4-methoxy-5′-(3-p-tolylureido)biphenyl-3-carboxylic acid]
18 | 230 nM | 110 nM | COC(CN(C)c1ccc(-c2ccccc2-c2nnn[nH]2)cc1NC(=O)Nc1ccc(C)cc1)OC [Example 55, 1-(4-((2,2-dimethoxyethyl) (methyl)amino)-2′-(1H-tetrazol-5-yl)biphenyl-3-yl)-3-p-tolylurea]
19 | 490 nM | 110 nM | Cc1cccc(NC(=O)Nc2cc(-c3ccccc3-c3nnn[nH]3)ccc2N(C)C2CCCCC2)c1 [Example 211, 1-(4-(cyclohexyl(methyl)amino)-2′-(1H-tetrazol-5-yl)biphenyl-3-yl)-3-m-tolylurea]
20 | 490 nM | 90 nM | CN(c1ccc(-c2ccccc2C(=O)O)cc1NC(=O)Nc1ccccc1)C1CCCCC1 [Example 218, 4′-(cyclohexyl(methyl)amino)-3′-(3-phenylureido)biphenyl-2-carboxylic acid]
21 | 310 nM | 60 nM | Cc1ccc(NC(=O)Nc2cc(-c3ccccc3-c3nnn[nH]3)ccc2N(C)C2CCOCC2)cc1 [Example 50, 1-(4-(methyl(tetra-hydro-2H-pyran-4-yl)amino)-2′-(1H-tetrazol-5-yl)biphenyl-3-yl)-3-p-tolylurea]
22 | 100 nM | 60 nM | CCCN(CC1CC1)c1ccc(-c2ccccc2C(=O)O)cc1NC(=O)Nc1ccc(C)cc1 [Example 58, 4′-((cyclopropylmethyl) (propyl)amino)-3′-(3-p-tolylureido) biphenyl-2-carboxylic acid]
23 | 90 nM | 20 nM | CN(c1ccc(-c2ccccc2-c2nnn[nH]2)cc1NC(=O)Nc1ccc(C(F)(F)F)cc1)C1CCCCC1 [Example 2, 1-(4-(Cyclohexyl(methyl)amino)-2′-(1H-tetrazol-5-yl)biphenyl-3-yl)-3-(4-(trifluoromethyl)phenyl)urea]
24 | 60 nM | 10 nM | CN(c1ccc(-c2ccccc2-c2nnn[nH]2)cc1NC(=O)Nc1ccccc1Cl)C1CCCCC1 [Example 45, 1-(2-chlorophenyl)-3-(4-(cyclohexyl (methyl)amino)-2′-(1H-tetrazol-5-yl)biphenyl-3-yl)urea]
25 | 40 nM | 10 nM | Cc1ccc(NC(=O)Nc2cc(-c3ccccc3-c3nnn[nH]3)ccc2N2CCC[C@@H]3CCCC[C@@H]32)cc1 [Example 47, 1-(4-((4aS,8aS)-octahydroquinolin-1(2H)-yl)-2′-(1H-tetrazol-5-yl)biphenyl-3-yl)-3-p-tolylurea]
26 | 20 nM | 10 nM | CCCN(CC1CC1)c1ccc(-c2ccccc2-c2nnn[nH]2)cc1NC(=O)Nc1ccc(C)cc1 [Example 59, 1-(4-((cyclopropylmethyl) (propyl)amino)-2′-(1H-tetrazol-5-yl)biphenyl-3-yl)-3-p-tolylurea]
27 | 80 nM | 10 nM | CN(c1ccc(-c2ccccc2C(=O)O)cc1NC(=O)Nc1ccccc1F)C1CCCCC1 [Example 219, 4′-(cyclohexyl(methyl)amino)-3′-(3-(2-fluorophenyl)ureido) biphenyl-2-carboxylic acid]
28 | 10 nM | 6.56 nM | Cc1ccc(NC(=O)Nc2cc(-c3ccccc3C(=O)O)ccc2N(C)C2CCCCC2)cc1 [Example 213, 4′-(cyclohexyl(methyl)amino)-3′-(3-p-tolylureido)biphenyl-2-carboxylic acid]
29 | 10 nM | 5.57 nM | Cc1ccc(NC(=O)Nc2cc(-c3ccccc3C(=O)O)ccc2N(CC(C)C)CC(C)C)cc1 [Example 52, 4′-(diisobutyl-amino)-3′-(3-p-tolylureido) biphenyl-2-carboxylic acid]
30 | 7.93 nM | 1.72 nM | Cc1ccc(NC(=O)Nc2cc(-c3ccccc3-c3nnn[nH]3)ccc2N(C)C2CCCCC2)cc1 [Example 44, 1-(4-(cyclohexyl (methyl)amino)-2′-(1H-tetrazol-5-yl)biphenyl-3-yl)-3-p-tolylurea]
31 | 2.36 nM | 1.07 nM | CN(c1ccc(-c2ccccc2-c2nnn[nH]2)cc1NC(=O)Nc1ccccc1F)C1CCCCC1 [Example 214, 1-(4-(cyclohexyl(methyl)amino)-2′-(1H-tetrazol-5-yl)biphenyl-3-yl)-3-(2-fluorophenyl)urea]
